The numbers were not newly measured in patent US20250090614A1, “COMPOSITIONS AND METHODS FOR IMPROVING LUNG FUNCTION” (priority 2023, published 2025), which cites them from elsewhere.

One data set deals with senescent lung cells. The note with it: mouse model, Palazzo et al. 2023; cited from earlier work.
Data set [1] has as its system Idiopathic pulmonary fibrosis (IPF). The note with it: Dasatinib and Quercetin given together, pilot study, Justice et al. 2019; cited from earlier work.

On to `COC(=O)C1=C(C)NC(C)=C(C(=O)OC2CCCN(Cc3ccccc3)C2)C1c1cccc([N+](=O)[O-])c1` (stereo not drawn) [Benidipine], for which, in the data set on senescent lung cells, the lung emphysema result is “ameliorates” and the senescent lung cells result is given as “decrease”.

Regarding `O=c1c(O)c(-c2ccc(O)c(O)c2)oc2cc(O)cc(O)c12` [Quercetin], the “physical dysfunction in Idiopathic pulmonary fibrosis (IPF)” value in data set [1] was “showed promise”.
